Assay results reported in patent US20240156093A1 (priority 2021, published 2024).
Values after ≈ are worked out from the molar mass of the structure shown.

Tests used:
physchem [1] = conditions: 25 °C, water
physchem [2] = assay: physchem
[3] = tested on: feline calicivirus (non-enveloped virus); type: cell-based
[4] = tested on: influenza virus (enveloped virus); type: cell-based

Row | Structure (SMILES) | solubility (physchem [1]) [µg/mL] | pKa (physchem [2]) | also measured
1 | CCCCCCCCCCCC(=O)O [Lauric acid, lauric acid] | 4.8 (≈ 0.024 mM) | 4.92 | –
2 | O=C(O)CCCCC(=O)O [Adipic acid, adipic acid] | – | 4.34 | –
3 | O=C(O)c1cccc(C(=O)O)c1 [isophthalic acid] | 130 (≈ 0.783 mM) | – | –
4 | CCCCCCCCC(=O)O [pelargonic acid] | 280 (≈ 1.77 mM) | – | –
5 | CCCCCCC(=O)O [enanthic acid] | 2400 (≈ 18.4 mM) | – | –
6 | O=C(O)c1ccccc1O [Salicylic acid, salicylic acid] | 2000 (≈ 14.5 mM) | – | –
7 | CCCCCCCCCCCCc1ccc(S(=O)(=O)[O-])cc1.[Na+] [Comparative example 2, sodium dodecylbenzene sulfonate] | – | – | Feline calicivirus: Antiviral activity value [3]: 0.3; Feline calicivirus: Virus infectivity titer common logarithmic value [3]: 6.2 PFU/cm^2; Influenza virus: Antiviral activity value [4]: 2.0; Influenza virus: Virus infectivity titer common logarithmic value [4]: 4.5 PFU/cm^2
8 | O=C(O)CCCCC(=O)O [Comparative example 3, adipic acid] | – | – | Feline calicivirus: Antiviral activity value [3]: 0.5; Feline calicivirus: Virus infectivity titer common logarithmic value [3]: 6 PFU/cm^2; Influenza virus: Antiviral activity value [4]: 1.7
9 | O=C(O)/C=C/C(=O)O [Fumaric acid, fumaric acid] | 6300 (≈ 54.3 mM) | 3.02 | –
10 | CCCCCCCC/C=C\CCCCCCCC(=O)O [Oleic acid, oleic acid] | – | 5.35 | –
11 | Nc1ccc(C(=O)O)cc1 [4-aminobenzoic acid] | 6000 (≈ 43.8 mM) | – | –
12 | CCCCCC(=O)O [caproic acid] | 11000 (≈ 94.7 mM) | – | –
13 | O=C(O)c1ccccc1C(=O)O [Phthalic acid, phthalic acid] | 7200 (≈ 43.3 mM) | 2.94 | –
14 | O=C(O)c1ccc(C(=O)O)cc1 [terephthalic acid] | 17 (≈ 0.102 mM) | – | –
